In one series the test system is d-U937 cells. Description: Cell viability: MTT assay. Format: cell-based, human. The conditions noted are these: 1 μg/mL. In short, it runs like this: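 Differentiated U937 cells exposed to compound at 1 or 10 μg/mL final, either 4 h in 5% FCS RPMI1640 or 24 h in 10% FCS RPMI1640. After medium replacement, MTT added 1 h, formazan dissolved in DMSO, A550 read. % viability loss vs 0.5% DMSO vehicle; apparent viability gain shown as negative %.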
On the technique in general: Tetrazolium dyes change colour on reduction, which living cells bring about.

A further series has as its system PBMC cells. Nature of the series: Cell mitosis assay. Format: cell-based, human. On the procedure:
Peripheral blood mononucleocytes (PBMCs) from healthy subjects were separated from whole blood (Quintiles, London, UK) using a density gradient (Histopaque®-1077, Sigma-Aldrich, Poole, UK). The PBMCs (3 million cells per sample) were subsequently treated with 2% PHA (Sigma-Aldrich, Poole, UK) for 48 hr, followed by a 20 hr exposure to varying concentrations of test compounds. At 2 hr before collection, PBMCs were treated with demecolcine (0.1 μg/mL; Invitrogen, Paisley, UK,) to arrest cells in metaphase. To observe mitotic cells, PBMCs were permeabilised and fixed by adding Intraprep (50 μL; Beckman Coulter, France), and stained with anti-phospho-histone 3 ([…]; #9701; Cell Signalling, Danvers, Mass.) and propidium iodide (1 mg/mL; Sigma-Aldrich, Poole, UK,) as previously described (Muehlbauer P. A. and Schuler M. J., Mutation Research, 2003, 537:117-130). Fluorescence was observed using an ATTUNE flow cytometer (Invitrogen, Paisley, UK), gating for lymphocytes.

Another series addresses p38MAPKγ (MAPK12) (Homo sapiens (Human), UniProt P53778). Nature of the series: p38 MAPKγ enzyme inhibition (FRET, Z-LYTE). Format: biochemical. The gist of the method:
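Z-LYTE FRET kinase format on donor/acceptor-labeled synthetic peptide; protease development 1 hr cleaves only non-phosphorylated peptide. Phosphorylation derived from coumarin/fluorescein emission ratio, low ratio indicating high phosphorylation.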

Series [1] has as its target p38 MAPKα isoform (MAPK14) (Homo sapiens (Human), UniProt Q16539). Description: p38 MAPKα enzyme inhibition (FRET, Z-LYTE). Format: biochemical.
The target of another series is GSK 3α enzyme isoform (Homo sapiens (Human), UniProt P49840). Nature of the series: GSK 3α enzyme inhibition (FRET, Z-LYTE). Format: biochemical. Particulars: read-out: IC50 Values for Enzyme Inhibition GSK3α. In short, it runs like this:
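Human GSK3α (500 ng/mL stock) was preincubated 2 h at RT with compound (stocks 4, 0.4, 0.04 or 0.004 μg/mL), then given FRET peptide (8 μM stock) and ATP (40 μM stock) for 1 h. After 1 h protease development, the coumarin/fluorescein emission ratio gave phosphorylation level.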

Series [2] concerns ICAM-1 expression in BEAS2B cells. Nature of the series: Poly I:C-induced ICAM-1 expression in BEAS2B cells. Format: cell-based, human. Particulars: Homo sapiens, BEAS-2B, read-out: PolyIC/ICAM1 IC50 (BEAS2B). In short, it runs like this:
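BEAS2B human bronchial epithelial cells pre-incubated 2 h with compound, then transfected with 1 μg/mL poly I:C plus Oligofectamine. After 18 h, surface ICAM-1 measured by cell-based ELISA (OD450–655), normalised to crystal violet cell count (OD595). Inhibition calculated against vehicle control.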

From patent publication US9724347B2, “1-pyrazolyl-3-(4-((2-anilinopyrimidin-4-yl)oxy)napththalen-1-yl) ureas as P38 MAP knase inhibitors” (Respivert Ltd., priority 2011, dated 2017) come the findings set out here.

Molecules are shown by their SMILES.

Sequence of p38 MAPKα isoform (MAPK14) (Q16539 whole entry, canonical isoform): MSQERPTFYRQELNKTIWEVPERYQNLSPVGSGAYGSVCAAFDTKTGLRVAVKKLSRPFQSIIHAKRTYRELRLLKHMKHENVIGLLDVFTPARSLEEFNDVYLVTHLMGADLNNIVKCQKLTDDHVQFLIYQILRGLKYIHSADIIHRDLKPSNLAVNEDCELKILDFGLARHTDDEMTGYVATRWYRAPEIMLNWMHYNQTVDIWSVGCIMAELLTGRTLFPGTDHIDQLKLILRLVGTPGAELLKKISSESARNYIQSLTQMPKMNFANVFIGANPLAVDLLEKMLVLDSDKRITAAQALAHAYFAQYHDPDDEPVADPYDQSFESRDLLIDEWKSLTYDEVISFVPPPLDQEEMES
Sequence of GSK 3α enzyme isoform (P49840 whole entry, canonical isoform): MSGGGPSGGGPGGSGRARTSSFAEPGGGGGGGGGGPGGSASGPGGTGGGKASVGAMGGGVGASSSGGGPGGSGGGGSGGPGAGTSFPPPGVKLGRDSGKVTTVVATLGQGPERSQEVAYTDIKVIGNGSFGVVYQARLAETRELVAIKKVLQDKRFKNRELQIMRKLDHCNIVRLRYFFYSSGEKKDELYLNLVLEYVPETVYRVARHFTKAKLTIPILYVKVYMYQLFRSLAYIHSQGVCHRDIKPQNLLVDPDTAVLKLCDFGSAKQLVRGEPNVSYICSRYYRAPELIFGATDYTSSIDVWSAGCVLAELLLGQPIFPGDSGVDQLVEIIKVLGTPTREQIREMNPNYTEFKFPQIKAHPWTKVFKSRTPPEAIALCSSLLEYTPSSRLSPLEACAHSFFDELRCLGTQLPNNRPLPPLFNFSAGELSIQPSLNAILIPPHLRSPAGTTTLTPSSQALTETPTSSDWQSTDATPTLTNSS
Sequence of p38MAPKγ (MAPK12) (P53778 whole entry): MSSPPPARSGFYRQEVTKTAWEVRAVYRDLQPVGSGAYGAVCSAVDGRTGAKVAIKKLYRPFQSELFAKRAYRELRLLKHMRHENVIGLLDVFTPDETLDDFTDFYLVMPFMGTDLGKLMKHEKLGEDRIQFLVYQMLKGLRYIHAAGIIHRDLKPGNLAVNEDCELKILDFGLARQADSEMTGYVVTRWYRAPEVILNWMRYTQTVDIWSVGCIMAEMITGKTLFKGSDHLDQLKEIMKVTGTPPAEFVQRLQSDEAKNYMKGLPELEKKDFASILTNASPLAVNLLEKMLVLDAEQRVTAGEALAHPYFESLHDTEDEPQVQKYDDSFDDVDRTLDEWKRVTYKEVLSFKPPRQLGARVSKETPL

Consider `Cc1ccc(-n2nc(C(C)(C)C)cc2NC(=O)Nc2ccc(Oc3ccnc(Nc4cccc(O)c4)n3)c3ccccc23)cc1` [Example 2, 1-(3-(tert-Butyl)-1-(p-tolyl)-1H-pyrazol-5-yl)-3-(4-((2-((3-hydroxyphenyl)amino)pyrimidin-4-yl)oxy)naphthalen-1-yl)urea], for which the “MTT Assay Cell viability at time point in d-U937 Cells” value (from here on “MTT Assay Cell viability”) is “−ve (−ve and +ve indicate the value is below and above respectively, the no significant effect threshold defined as 30% inhibition at 1 μg/mL at the time point indicated)” with d-U937 cells (4 h); “−ve (−ve and +ve indicate the value is below and above respectively, the no significant effect threshold defined as 30% inhibition at 1 μg/mL at the time point indicated)” in the series with d-U937 cells (24 h). Besides, the “Mitosis Assay % inhibition in PBMC Cells” value in the series with PBMC cells (5 μg/mL) is 70.6%. Moreover, the IC50 against p38MAPKγ (MAPK12) worked out at 557 nM.
As to `COc1ccc(-n2nc(C(C)(C)C)cc2NC(=O)Nc2ccc(Oc3ccnc(Nc4ccccc4)n3)c3ccccc23)cc1` [Example 7, 1-(3-(tert-butyl)-1-(4-methoxyphenyl)-1H-pyrazol-5-yl)-3-(4-((2-(phenylamino)pyrimidin-4-yl)oxy)naphthalen-1-yl)urea], the IC50 in series [1] is 170 nM; at GSK 3α enzyme isoform, 3500 nM; in series [2] it was 23 nM; against p38MAPKγ (MAPK12), 1700 nM. In addition, the “MTT Assay Cell viability” value was “−ve (−ve and +ve indicate the value is below and above respectively, the no significant effect threshold defined as 30% inhibition at 1 μg/mL at the time point indicated)” in the series with d-U937 cells (4 h); “−ve (−ve and +ve indicate the value is below and above respectively, the no significant effect threshold defined as 30% inhibition at 1 μg/mL at the time point indicated)” with d-U937 cells (24 h). Further, the “Mitosis Assay % inhibition in PBMC Cells” value in the series with PBMC cells (5 μg/mL) is 10.2%.
Turning to `COc1ccc(Nc2nccc(Oc3ccc(NC(=O)Nc4cc(C(C)(C)C)nn4-c4ccc(C)cc4)c4ccccc34)n2)c(OC)c1` [Example 8, 1-(3-(tert-butyl)-1-(p-tolyl)-1H-pyrazol-5-yl)-3-(4-((2-((2,4-dimethoxyphenyl)amino)pyrimidin-4-yl)oxy)naphthalen-1-yl)urea], the IC50 in series [1] was 151 nM; on GSK 3α enzyme isoform it was greater than 15500 nM; in series [2], 22 nM; against p38MAPKγ (MAPK12), greater than 15500 nM. For the same molecule, the “MTT Assay Cell viability” value in the series on d-U937 cells (4 h) is “−ve (−ve and +ve indicate the value is below and above respectively, the no significant effect threshold defined as 30% inhibition at 1 μg/mL at the time point indicated)”; in the series on d-U937 cells (24 h), “−ve (−ve and +ve indicate the value is below and above respectively, the no significant effect threshold defined as 30% inhibition at 1 μg/mL at the time point indicated)”. Moreover, the “Mitosis Assay % inhibition in PBMC Cells” value in the series on PBMC cells (1 μg/mL) was found to be 15.6%.
For the molecule `Cc1ccc(-n2nc(C(C)(C)C)cc2NC(=O)Nc2ccc(Oc3ccnc(Nc4ccc(O)cc4)n3)c3ccccc23)cc1` [Example 9, 1-(3-(tert-butyl)-1-(p-tolyl)-1H-pyrazol-5-yl)-3-(4-((2-((4-hydroxyphenyl)amino)pyrimidin-4-yl)oxy)naphthalen-1-yl)urea], the figures for the IC50 (in series [1]; at GSK 3α enzyme isoform; against p38MAPKγ (MAPK12)) were 171 nM, 3260 nM and 760 nM, respectively. The “MTT Assay Cell viability” value in the series on d-U937 cells (4 h) was “−ve (−ve and +ve indicate the value is below and above respectively, the no significant effect threshold defined as 30% inhibition at 1 μg/mL at the time point indicated)”; with d-U937 cells (24 h), “−ve (−ve and +ve indicate the value is below and above respectively, the no significant effect threshold defined as 30% inhibition at 1 μg/mL at the time point indicated)”. Also, in the series with PBMC cells (5 μg/mL), the “Mitosis Assay % inhibition in PBMC Cells” value came out at 50.3%.
Take `CCOc1ccc(Nc2nccc(Oc3ccc(NC(=O)Nc4cc(C(C)(C)C)nn4-c4ccc(C)cc4)c4ccccc34)n2)cc1` [Example 22, 1-(3-(tert-butyl)-1-(p-tolyl)-1H-pyrazol-5-yl)-3-(4-((2-((4-ethoxyphenyl)amino)pyrimidin-4-yl)oxy)naphthalen-1-yl)urea]: the IC50 in series [1] is 281 nM; on GSK 3α enzyme isoform, greater than 1590 nM; in series [2], 13 nM; against p38MAPKγ (MAPK12), greater than 1590 nM. In addition, the “MTT Assay Cell viability” value in the series with d-U937 cells (4 h) was “−ve (−ve and +ve indicate the value is below and above respectively, the no significant effect threshold defined as 30% inhibition at 1 μg/mL at the time point indicated)”; with d-U937 cells (24 h), “−ve (−ve and +ve indicate the value is below and above respectively, the no significant effect threshold defined as 30% inhibition at 1 μg/mL at the time point indicated)”. The “Mitosis Assay % inhibition in PBMC Cells” value with PBMC cells (5 μg/mL) worked out at 70.8%.
For the molecule `COc1ccc(Nc2nccc(Oc3ccc(NC(=O)Nc4cc(C(C)(C)C)nn4-c4ccc(C)cc4)c4ccccc34)n2)cc1OC` [Example 27, 1-(3-(tert-butyl)-1-(p-tolyl)-1H-pyrazol-5-yl)-3-(4-((2-((3,4-dimethoxyphenyl)amino)pyrimidin-4-yl)oxy)naphthalen-1-yl)urea], the IC50 was 105 nM in series [1], 2110 nM on GSK 3α enzyme isoform, 1.6 nM in series [2] and 535 nM at p38MAPKγ (MAPK12). Moreover, the “MTT Assay Cell viability” value is “+ve (−ve and +ve indicate the value is below and above respectively, the no significant effect threshold defined as 30% inhibition at 1 μg/mL at the time point indicated)” in the series on d-U937 cells (4 h); “−ve (−ve and +ve indicate the value is below and above respectively, the no significant effect threshold defined as 30% inhibition at 1 μg/mL at the time point indicated)” with d-U937 cells (24 h). Also, the “Mitosis Assay % inhibition in PBMC Cells” value in the series with PBMC cells (5 μg/mL) was determined as 11.2%.
Take `Cc1ccc(-n2nc(C(C)(C)C)cc2NC(=O)Nc2ccc(Oc3ccnc(Nc4ccc(O)cc4Cl)n3)c3ccccc23)cc1` [Example 31, 1-(3-(tert-butyl)-1-(p-tolyl)-1H-pyrazol-5-yl)-3-(4-((2-((2-chloro-4-hydroxyphenyl)amino)pyrimidin-4-yl)oxy)naphthalen-1-yl)urea]: the IC50 is 118 nM in series [1], greater than 1580 nM at GSK 3α enzyme isoform, 80 nM in series [2] and greater than 1580 nM on p38MAPKγ (MAPK12). Further, the “MTT Assay Cell viability” value in the series on d-U937 cells (4 h) was “−ve (−ve and +ve indicate the value is below and above respectively, the no significant effect threshold defined as 30% inhibition at 1 μg/mL at the time point indicated)”; in the series with d-U937 cells (24 h) it was “−ve (−ve and +ve indicate the value is below and above respectively, the no significant effect threshold defined as 30% inhibition at 1 μg/mL at the time point indicated)”.
For the molecule `Cc1ccc(-n2nc(C(C)(C)C)cc2NC(=O)Nc2ccc(Oc3ccnc(Nc4ccc(O)cc4O)n3)c3ccccc23)cc1` [Example 32, 1-(3-(tert-butyl)-1-(p-tolyl)-1H-pyrazol-5-yl)-3-(4-((2-((2,4-dihydroxyphenyl)amino)pyrimidin-4-yl)oxy)naphthalen-1-yl)urea], the IC50 in series [1] was 189 nM; at GSK 3α enzyme isoform it was greater than 1620 nM; in series [2] it was 21 nM; against p38MAPKγ (MAPK12), greater than 1620 nM. The “MTT Assay Cell viability” value in the series on d-U937 cells (4 h) is “−ve (−ve and +ve indicate the value is below and above respectively, the no significant effect threshold defined as 30% inhibition at 1 μg/mL at the time point indicated)”; in the series on d-U937 cells (24 h), “−ve (−ve and +ve indicate the value is below and above respectively, the no significant effect threshold defined as 30% inhibition at 1 μg/mL at the time point indicated)”. Further, the “Mitosis Assay % inhibition in PBMC Cells” value in the series with PBMC cells (5 μg/mL) was found to be 33.0%.
